Laboratory results reported in patent US20260009799A1, “CA-IX TARGETING FLUORESCENT PROBES” (BRACCO IMAGING S.P.A., priority 2022, published 2026).

Assays:
[1] = Optical characterization (excitation/emission maxima, molar extinction coefficient); type: physicochemical
Method: A dual-beam UV-VIS spectrophotometer (Lambda 40, Perkin Elmer) was used to determine the absorbance (Abs) of the compounds of the invention. Emission/excitation (Em/Ex) spectra were carried out on a spectrofluorometer (FluoroLog-3 1IHR-320, Horiba Jobin Yvon) equipped with an F-3018 integrating sphere accessory. The measurements were performed using an excitation wavelength at maximum absorbance of different dyes, and the sample was excited with a 450 W Xenon light Source. Detection was performed by photomultiplier tubes (PMT-NIR) cooled detector or by TBX-04 detector. Dye solutions were carefully prepared to have an absorbance lower than 0.1 (optical densities) to minimize re-absorption phenomena.
The compounds of the invention were characterized in terms of their optical properties in vitro in aqueous medium (i.e., water/PBS pH 7.4) and in a clinical chemistry control serum (Seronorm, Sero SA), mimicking the chemical composition and optical properties of human serum. All solutions were freshly prepared. In particular, the compounds of the invention are characterized by absorption maxima comprised in the range from about 750 nm to 780 nm.
The excitation and emission maxima in PBS and Seronorm and the molar extinction coefficient (ε) in water of representative compounds of formula (I) are shown in Table I in comparison with the known CA-IX targeting fluorescent probe named Hypoxyfluor-1 (HF-1, for instance disclosed in Bioconjugate Chem 2018, 29, 3320-3331). […] Moreover, the extinction coefficients were higher than 200,000 mM^−1 cm^−1 for all compounds.

[2] = target: T1, human serum albumin (HSA) (Homo sapiens, UniProt P02768); assay: Binding to albumin (ultrafiltration, absorbance of filtrates); type: in vitro ADME; conditions: 4.76 μM probe in PBS, 10 KDa cut off ultrafiltration, 25° C.; read-out: HSA affinity (KA, M^−1) (converted)
T1 construct: purchased Sigma-Aldrich A9511
T1 sequence (P02768 25-609): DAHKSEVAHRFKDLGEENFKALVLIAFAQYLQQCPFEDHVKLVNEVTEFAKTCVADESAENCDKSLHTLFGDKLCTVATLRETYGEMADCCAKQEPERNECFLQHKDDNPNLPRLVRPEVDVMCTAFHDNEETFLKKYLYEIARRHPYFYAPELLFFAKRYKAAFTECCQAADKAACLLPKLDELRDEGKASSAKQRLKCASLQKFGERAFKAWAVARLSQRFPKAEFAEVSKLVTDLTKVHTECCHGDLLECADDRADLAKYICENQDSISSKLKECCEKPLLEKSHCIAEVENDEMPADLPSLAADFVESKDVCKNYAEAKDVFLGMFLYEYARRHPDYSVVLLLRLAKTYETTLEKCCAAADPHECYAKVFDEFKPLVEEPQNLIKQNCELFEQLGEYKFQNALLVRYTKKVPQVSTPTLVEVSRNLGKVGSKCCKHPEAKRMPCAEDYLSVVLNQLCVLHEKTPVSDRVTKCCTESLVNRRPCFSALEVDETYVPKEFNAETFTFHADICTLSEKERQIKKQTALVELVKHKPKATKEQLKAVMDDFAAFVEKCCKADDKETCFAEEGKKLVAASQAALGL
Method: The affinity of the probes for human serum albumin (HSA) was determined to assess the influence of structural features on their albumin binding properties. Briefly, HSA (A9511, Sigma-Aldrich) was prepared in a […] stock solution in PBS and used to obtain a series of dilutions in PBS (0, 9.52·10^−7, 4.76·10^−6, 9.52·10^−6, 1.90·10^−5, 3.81·10^−5, 5.71·10^−5, 9.52·10^−5, 1.43·10^−4, 1.90·10^−4, 2.86·10^−4, 3.81·10^−4 M), in presence of 4.76 μM of the CA-IX-targeting probe (prepared from a 50 μM stock solution in PBS), in a total volume of 0.525 mL. The samples were centrifuged (10000 g for 30 min at 25° C.) in a Microcon device (10 KDa MW cut off, Amicon Ultra-0.5 Centrifugal Filter Unit with Ultracel-10 membrane) and the absorbance measurements of the filtrates were obtained with the spectrophotometer at the maximum absorbance wavelength of the fluorophore.
Data analysis was performed by fitting the raw data, using Microsoft Excel Solver, with the equation:
where ΔA/b=Absorbance measured (b=1 cm), KRL=KA calculated by fitting, Δε·Rt are calculated by fitting, and [L]=HSA concentration. ΔA/b values were experimentally obtained by subtracting the absorbance of “0 HSA sample” to the absorbance of each other sample.

[3] = tested on: hypoxic HT-29 colorectal tumor, subcutaneously induced; assay: In vivo tumor optical imaging (IVIS Spectrum), tumor-to-background ratio; parameters: species or system mice; conditions: 24 hours after intravenous administration, 1 nmol/mouse, tumor vs hind limb muscle
Method: HT-29 cells were collected and washed once with serum-free medium. Five million HT-29 cells were suspended in 0.1 mL serum-free medium and injected subcutaneously in the right flank of 5 weeks old mice. Tumor development was followed by caliper measurement twice a week, from 7 days after inoculation. Tumor volume was calculated according to the formula: (L*W2)/2, where L and W are the maximum length and width of the tumor.
Optical Imaging experiments on HT-29 tumor bearing animals were performed after administration of Reference 1, 2 and 3, and compounds 1 and 2, all at a dose of 1 nmol/mouse in an administration volume of 0.1 mL (corresponding to about 5 mL/kg, considering a 20 g-mouse) at an injection rate of about 1 mL/min, by the IVIS Spectrum system when the tumor reached at least 200 mm^3 volume. For each group, in vivo OI experiments were performed at 0.5, 1, 2, 3, 4, 6 and 24 hours after intravenous administration of the fluorescent compounds. During imaging experiments animals were maintained under gaseous anesthesia. Regions of interest (ROIs) were drawn on the tumor and on a reference background healthy region (hind limb muscle) of the mouse for each fluorescence image at every time point to evaluate signal intensity in the tissues (expressed as Average Radiant Efficiency). The ratio between the fluorescence signal in the tumor and in the background healthy tissue (tumor-to-background ratio, TBR) was then calculated to assess the contrast.
All the compounds of the invention and the References were tested at a dose of 1 nmol/mouse.

[4] = tested on: HT-29 excised tumors and tissues; assay: Ex vivo biodistribution in excised tumors and organs; parameters: species or system mice; conditions: 1 nmol; for Organ-to-muscle ratio, intestine (mean ± SD) / Organ-to-muscle ratio, kidney (mean ± SD) / Organ-to-muscle ratio, liver (mean ± SD) / Organ-to-muscle ratio, skin (mean ± SD) / Organ-to-muscle ratio, spleen (mean ± SD) / Organ-to-muscle ratio, stomach (mean ± SD): ex vivo, 24 hours after administration; for ex vivo TBR (mean ± SD), HT-29 tumor: samples collected 24 hours after administration, tumor vs hind limb muscle
Method: The ex vivo biodistribution of the representative compounds 1 and 2 and of the reference compounds (at 1 nmol/mouse) was evaluated in HT-29 excised tumors and tissues at the end of the in vivo OI sessions 24 hours post intravenous administration. At the end of the in vivo experiment, animals were euthanized by overdose of gaseous anesthesia followed by cervical dislocation. Tumor tissue, muscle, and other organs of interest were removed for ex vivo fluorescent signal measurements. The fluorescence signal intensity was measured by the IVIS Spectrum system. Regions of interest (ROIs) were drawn around each organ and tumor using the Living Image Software (PerkinElmer) and evaluating signal intensity in the tissues (expressed as Average Radiant Efficiency). The ratio between the fluorescence signal in the organs and tumor was then calculated to assess the contrast to hind limb muscle (representing the background).

[5] = Optical characterization (excitation/emission maxima, molar extinction coefficient); type: physicochemical; conditions: in water
[6] = target: T2, CA-IX expressing HT-29 cells (Homo sapiens, UniProt Q16790); assay: Cellular binding assessment by flow cytometry; conditions: HT-29 cells, 1 hour 30 min on ice, flow cytometry; read-out: CA-IX receptor affinity (KD, nM to HT-29 cells)
T2 construct: CA-IX, expressed in its physiological environment at the cell-surface; host or cells: HT-29 human colorectal adenocarcinoma cells
Method: Human colon adenocarcinoma HT-29 cells (ATCC) used for the cellular binding experiments were cultured in McCoy's 5A medium (Sigma-Aldrich), supplemented with 10% HyClone Fetal Clone III (Euroclone), 2 mM L-glutamine (Sigma-Aldrich), 100 IU/mL penicillin, 0.1 mg/mL streptomycin, 0.25 μg/mL amphotericin B (Antibiotic-Antimycotic solution, Life Technologies) and cells were grown at 37° C. in humidified atmosphere enriched with 5% CO2. DPBS without MgCl2 and CaCl2) (Sigma-Aldrich) was used for cell rinsing.
Indeed, by using the anti-human CA-IX antibody MAB2188 (R&D Systems) and the DAKO […], according to the instruction of the datasheet, HT-29 cells were estimated to express about 150,000 CA-IX molecules per cell. Thus, HT-29 cells were used to measure the binding of all compounds to CA-IX, expressed in its physiological environment at the cell-surface. Briefly, HT-29 cells were detached with StemPro® Accutase® Cell Dissociation Reagent (Life Technologies), collected in DPBS and counted. At least 2·10^5 HT-29 cells were placed in 1.5 mL tubes on ice and resuspended in 50-100 μL of cold FACS buffer (eBioscience™ Flow Cytometry Staining Buffer, Invitrogen) containing scalar concentrations of compounds (HF-1, reference 2, and compound 1: range 0-20 μM; reference 3: range 0-24 μM; compound 2: range 0-10 μM). After incubation (1 hour and 30 min on ice in the dark), cells were rinsed 3 times in 300 μL of cold FACS buffer by centrifugation (5 min, 4° C., 350 RCF), discarding the supernatant. Cell pellets were then resuspended in 200 μL of cold FACS buffer (or in an adequate volume in order to obtain no more than 1000 recorded events per μL during FACS analysis) and analyzed with the flow cytometer Accuri™ C6 (BD Biosciences). The mean cell-associated fluorescence was plotted against concentration and the dissociation constant at equilibrium (KD) was inferred by mathematical fitting with GraphPad Prism v.9 software, according to the following equation: […]
where Bmax is the maximum specific binding in the same units as Y; KD is the equilibrium dissociation constant, in the same units as X; NS is the slope of nonspecific binding in Y units divided by X units; and background is the amount of nonspecific binding with no added Compound.
All compounds were analyzed in at least three independent experiments.

[7] = target: recombinant bovine CA-II enzyme (bCAII) (Bos taurus, UniProt P00921); assay: Fluorescence-based dansylamide (DNSA) displacement assay on carbonic anhydrase catalytic site
recombinant bovine CA-II enzyme (bCAII), sequence (P00921 whole entry): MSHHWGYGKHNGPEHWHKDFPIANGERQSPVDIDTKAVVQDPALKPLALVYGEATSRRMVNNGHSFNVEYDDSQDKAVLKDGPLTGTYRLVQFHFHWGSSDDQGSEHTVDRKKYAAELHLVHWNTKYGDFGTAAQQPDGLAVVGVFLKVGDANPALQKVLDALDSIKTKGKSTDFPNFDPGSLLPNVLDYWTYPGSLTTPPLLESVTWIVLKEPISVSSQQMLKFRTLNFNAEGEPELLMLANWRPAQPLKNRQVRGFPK

[8] = after injection into the patient; cited from earlier work

| Compound | Max Em (nm, PBS pH 7.4) ([1]; emission maximum, PBS pH 7.4) [nm] | Max Em (nm, Seronorm) ([1]; emission maximum, Seronorm control serum) [nm] | Max Ex (nm, PBS pH 7.4) ([1]; excitation maximum, PBS pH 7.4) [nm] | Max Ex (nm, Seronorm) ([1]; excitation maximum, Seronorm control serum) [nm] | Kd [2] [nM] | in vivo TBR (mean ± SD) [3] | Organ-to-muscle ratio, intestine (mean ± SD) [4] | Organ-to-muscle ratio, kidney (mean ± SD) [4] | Organ-to-muscle ratio, liver (mean ± SD) [4] | Organ-to-muscle ratio, skin (mean ± SD) [4] | Organ-to-muscle ratio, spleen (mean ± SD) [4] | Organ-to-muscle ratio, stomach (mean ± SD) [4] | ex vivo TBR (mean ± SD), HT-29 tumor [4] | molar extinction coefficient (ε) [5] [M⁻¹ cm⁻¹] | Kd [6] [nM] | Kd [7] [nM] | time after injection to reach tumor/blood ratios suitable for imaging [8] [days] |
| --- | --- | --- | --- | --- | --- | --- | --- | --- | --- | --- | --- | --- | --- | --- | --- | --- | --- |
| CC1(C)C(/C=C/C2=C(Oc3ccc(CCC(=O)NCCCCCCCC(=O)Nc4nnc(S(N)(=O)=O)s4)cc3)C(=C/C=C3/N(CCCCS(=O)(=O)O)c4ccc(S(=O)(=O)O)cc4C3(C)C)/CCC2)=[N+](CCCCS(=O)(=O)[O-])c2ccc(S(=O)(=O)O)cc21 [Reference 1] | 798 | 808 | 772 | 792 | 6400 | 1.8 ± 0.3 | 2.2 ± 1.3 | 2.4 ± 0.3 | 5.7 ± 0.2 | 1.4 ± 0.0 | 1.4 ± 0.3 | 4.0 ± 1.7 | 3.1 ± 0.3 | 255000 |  |  |  |
| CC(=O)NC(CCCCn1cc(CCCC(=O)Nc2nnc(S(N)(=O)=O)s2)nn1)C(=O)NCCOCCOCCNC(=O)CCCCCN1/C(=C/C=C/C=C/C=C/C2=[N+](CCC(C)S(=O)(=O)[O-])c3ccc(C(=O)NC[C@H](O)[C@@H](O)[C@H](O)[C@H](O)CO)cc3C2(C)C)C(C)(C)c2cc(C(=O)NC[C@H](O)[C@@H](O)[C@H](O)[C@H](O)CO)ccc21 (stereo partly shown) [Reference 3] |  |  |  |  | 24000 | 4.7 ± 0.6 | 2.7 ± 0.9 | 15.8 ± 3.4 | 3.6 ± 1.0 | 2.0 ± 0.5 | 1.2 ± 0.3 | 6.7 ± 1.4 | 14.7 ± 2.3 |  | 251 ± 44 | 30.2 ± 1 |  |
| ^124I-cG250: chimeric version of monoclonal antibody G250 labeled with radionuclide 124I |  |  |  |  |  |  |  |  |  |  |  |  |  |  |  |  | 2 to 7 |
| CC(=O)NC(CCCCn1cc(CCCC(=O)Nc2nnc(S(N)(=O)=O)s2)nn1)C(=O)NCCOCCOCCNC(=O)CCCCCN1/C(=C/C=C2\CCCC(/C=C/C3=[N+](CCCCS(=O)(=O)[O-])c4ccc(C(=O)NC[C@H](O)[C@@H](O)[C@H](O)[C@H](O)CO)cc4C3(C)C)=C2Oc2ccc(S(=O)(=O)O)cc2)C(C)(C)c2cc(C(=O)NC[C@H](O)[C@@H](O)[C@H](O)[C@H](O)CO)ccc21 (stereo partly shown) [Reference 2] |  |  |  |  | 69900 | 3.4 ± 0.6 | 3.0 ± 0.3 | 19.7 ± 2.2 | 6.2 ± 1.3 | 1.7 ± 0.4 | 1.7 ± 0.4 | 6.1 ± 0.7 | 9.2 ± 3.3 |  | 349 ± 49 | 55.8 ± 1.1 |  |
